From ChEMBL document CHEMBL1133166, “Cyclin-dependent kinase inhibitors: useful targets in cell cycle regulation” (J Med Chem, 2000) come the findings set out here.

Active and inactive are the calls of the source. The calls are words filed in the database; no cut-off is given here.

The target in assay [1] is T1, Cyclin-dependent kinase 4/cyclin D (Homo sapiens) (UniProt P11802+P24385+P30281+P30279). In words: Inhibition of Cyclin-dependent kinase 4-cyclin D (Inactive). The class given is protein-complex assay. Conditions: Asteroidea.
Assay [2] deals with Cyclin-dependent kinase 2/cyclin E (Homo sapiens) (UniProt P24864+P24941+O96020). Conditions: Asteroidea.
Description: Inhibition of Cyclin-dependent kinase 2-cyclin E
In assay [3] the target is Cyclin-dependent kinase 2/cyclin A (Homo sapiens) (UniProt P24941+P20248+P78396). In words: Inhibition of Cyclin-dependent kinase 2-cyclin A. The class given is protein-complex assay.
Assay [4] deals with Cyclin-dependent kinase 1/cyclin B (Homo sapiens) (UniProt P06493+P14635+Q8WWL7+O95067). Conditions: Asteroidea.
Description: Inhibition of Cyclin-dependent kinase 1-cyclin B
For assay [5], the target named is T1, Cyclin-dependent kinase 4/cyclin D (Homo sapiens). In words: Inhibition of Cyclin-dependent kinase 4-cyclin D. The class given is protein-complex assay.

T1 sequence (P11802 whole entry, looked up): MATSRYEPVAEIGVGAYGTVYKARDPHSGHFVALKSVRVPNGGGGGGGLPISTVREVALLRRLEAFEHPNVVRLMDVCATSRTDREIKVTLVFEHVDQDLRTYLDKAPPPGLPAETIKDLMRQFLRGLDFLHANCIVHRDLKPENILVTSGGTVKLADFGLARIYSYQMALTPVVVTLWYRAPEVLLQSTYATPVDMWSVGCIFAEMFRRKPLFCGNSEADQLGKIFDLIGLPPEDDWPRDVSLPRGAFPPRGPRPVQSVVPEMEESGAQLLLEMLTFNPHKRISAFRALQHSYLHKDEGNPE
T1 sequence (P24385 whole entry, looked up): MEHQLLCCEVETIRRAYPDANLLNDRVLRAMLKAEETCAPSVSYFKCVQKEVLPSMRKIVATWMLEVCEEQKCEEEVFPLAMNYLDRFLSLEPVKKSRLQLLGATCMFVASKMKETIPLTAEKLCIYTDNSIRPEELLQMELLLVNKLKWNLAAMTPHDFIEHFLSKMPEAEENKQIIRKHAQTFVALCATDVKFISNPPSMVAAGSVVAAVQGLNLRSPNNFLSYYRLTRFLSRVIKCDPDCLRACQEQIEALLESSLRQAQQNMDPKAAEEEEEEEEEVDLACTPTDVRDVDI
T1 sequence (P30279 whole entry, looked up): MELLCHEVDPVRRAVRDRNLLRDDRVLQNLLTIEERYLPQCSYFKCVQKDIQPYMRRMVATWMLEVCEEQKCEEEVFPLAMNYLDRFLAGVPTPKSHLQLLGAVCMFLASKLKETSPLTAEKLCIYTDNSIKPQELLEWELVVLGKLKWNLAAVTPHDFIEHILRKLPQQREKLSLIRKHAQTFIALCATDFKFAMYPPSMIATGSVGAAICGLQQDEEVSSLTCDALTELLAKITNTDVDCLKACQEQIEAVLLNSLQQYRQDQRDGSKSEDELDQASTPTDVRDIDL
T1 sequence (P30281 whole entry, looked up): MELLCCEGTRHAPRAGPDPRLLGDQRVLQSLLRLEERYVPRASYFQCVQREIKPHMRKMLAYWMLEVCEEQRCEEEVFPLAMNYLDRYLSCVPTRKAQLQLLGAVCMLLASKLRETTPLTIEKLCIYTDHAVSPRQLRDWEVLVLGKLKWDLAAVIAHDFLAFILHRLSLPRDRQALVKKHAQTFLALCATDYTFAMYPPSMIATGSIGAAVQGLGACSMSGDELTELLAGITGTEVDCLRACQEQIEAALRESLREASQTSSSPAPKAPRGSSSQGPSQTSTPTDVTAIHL

With `Cn1cnc2c(NCc3ccccc3)nc(NCCO)nc21`, the IA entry in assay [1] was “inactive”.

As to `CNS(=O)(=O)Cc1ccc(/N=N/c2c(O)[nH]c3ccc4ncccc4c23)cc1`, in assay [2], the ID50 turned out to be 6.2 nM.

For `CN1CC[C@H](c2c(O)cc(O)c3c(=O)cc(-c4ccccc4Cl)oc23)[C@H](O)C1`, in assay [3], the ID50 is 100 nM.

Take `OCCCNc1cc(-c2ccnc(Nc3cccc(Cl)c3)n2)ccn1`: the figures for the ID50 in assay [2] and in assay [4] were 50 nM and 20 nM, respectively.

On to `CC(C)n1c(=O)ccc2ncc(Nc3ccc(N4CCN(C)CC4)cc3)cc21`, for which the ID50 was 58 nM in assay [3], 45 nM in assay [5], 270 nM in assay [2] and 675 nM in assay [4].

In assay [4], `O=C1Cc2c([nH]c3ccc(Br)cc23)-c2ccccc2N1` returned an ID50 of 35 nM.

As to `CCn1cnc2c(N)nc(N(c3cccc(Cl)c3)[C@@H]3CCCC[C@@H]3N)nc21`, the ID50 in assay [5] came out at 29 nM; in assay [2] it was 9 nM; in assay [4] it was 16 nM.

Consider `CNS(=O)(=O)c1ccc(/N=N/c2c(O)[nH]c3ccc4ncsc4c23)cc1`, for which the ID50 in assay [2] worked out at 3.5 nM.

`CC(C)[C@H](CO)Nc1nc(Nc2ccc(C(=O)O)c(Cl)c2)c2ncn(C(C)C)c2n1` showed an ID50 in assay [3] of 6 nM.
